The subject of series [1] is Trypanosoma cruzi (amastigotes and trypomastigotes), Tulahuen strain. As to the kind of experiment: Anti-Trypanosoma cruzi activity assay (amastigotes and trypomastigotes) in infected L929 cells, beta-galactosidase reporter. The class given is cell-based. Particulars: 96 h incubation; for IC50: Trypanosoma cruzi, ± 0.2, read-out: Trypanocide IC50(μM) ± 0.2. The procedure:
Flavanone derivatives were evaluated for anti-T. cruzi activity against the intracellular forms of the parasite. Although the use of epimastigotes present in the midgut vector may be utilized for initial screening, we have instead opted for the simultaneous use of trypomastigote and intracellular amastigotes forms that are present during both acute and chronic phases of the disease. This approach is in accordance with the Drugs for Neglected Diseases Initiative guidelines (DNDi). Moreover, it also has the advantage of evaluating bioactive compounds in infected cells while at the same time monitoring their effects on both the relevant forms of the parasite in the same system. Benznidazole was used as a positive control against T. cruzi and cytotoxicity was determined in mammalian L929 cells (Table 1). The bioavailability profile of the flavanones was evaluated by applying the Lipinski rule and data related to the risk of toxicity (mutagenicity, tumorigenicity, irritability, and effects on the reproductive system) carried out through online programs “Molinspiration” and “OSIRIS property explorer” (Table 1). […] Nevertheless, this preliminary result motivated us to investigate other analogs bearing substituents in order to improve potency and selectivity. […] Moreover, the selectivity of 2d was almost 4 times greater than 2a. The importance of methoxy substituents for trypanocidal activity has been noted in other studies. […] These compounds resembled more closely the chemical structure of the trypanocidal natural product (brevifolin carboxylate) that these structures were based on. Some enhancement in the trypanocidal activity of hybrid coumarin-chalcone compounds was also noted when the methoxy groups were introduced into either the 2 or 5 positions of the benzene ring. The inclusion of a pyridine moiety in compound 2e was supported by previous reports describing the anti-T. cruzi activity of 2-pyridyl derivatives and their capacity to inhibit cruzain catalytic activity. […] No improvements in anti-T. cruzi activity were also observed for flavanones substituted at the benzoyl moiety (2g–2o and 2v–2x). […] The physicochemical drug descriptors of the molecular properties for the synthesized compounds were calculated by Molinspiration software (Table 1). The majority of the tested compounds satisfy the Lipinski rule with no violations and therefore displaying potentially good bioavailability. There were no linear correlations observed between molecular hydrophobicity and bioactivity.
The in vitro anti-T. cruzi activity was evaluated on L929 cells (mouse fibroblasts) infected with Tulahuen strain of the parasite expressing the Escherichia coli β-galactosidase as reporter gene. Briefly, for the bioassay, 4000 L929 cells were added to each well of a 96-well microtiter plate. After an overnight incubation, 40,000 trypomastigotes were added to the cells and incubated for 2 h. Then, the medium containing extracellular parasites were replaced with 200 μL of fresh medium and the plate was incubated for an additional 48 h to establish the infection. For IC50 determination, the cells were exposed to each synthesized compound at serial decreasing dilutions and the plate was incubated for 96 h. After this period, 50 μL of 500 μM chlorophenol red beta-D-galactopyranoside (CPRG) in 0.5% Nonidet P40 was added to each well, and the plate was incubated for 16–20 h, after which the absorbance at 570 nm was measured. Controls with uninfected cells, untreated infected cells, infected cells treated with Benznidazole at 3.8 μM (positive control) or DMSO 1% were used. The results were expressed as the percentage of T. cruzi growth inhibition in compound-tested cells as compared to the infected cells and untreated cells. The IC50 values were calculated by linear interpolation. Quadruplicates were run in the same plate, and the experiments were repeated at least once.

Another series has as its system L929 cells. As to the kind of experiment: In vitro cytotoxic test on uninfected L-929 cells (alamarBlue). In kind it is cell-based, mouse. As to conditions: CC50 L929 / IC50 T. cruzi. How it is done:
(§1) The active compounds were tested in vitro for determination of cellular toxicity against uninfected L-929 cells using the alamarBlue® dye. The cells were exposed to compounds at increasing concentrations starting at IC50 value for T. cruzi. After 96 h of incubation with the tested compounds, the alamarBlue® was added and the absorbance at 570 and 600 nm measured after 4–6 h. The cell viability was expressed as the percentage of difference in the reduction between treated and untreated cells. IC50 values were calculated by linear interpolation, and the selectivity index (SI) was determined based on the ratio of the IC50 value in the host cell divided by the IC50 value of the parasite. Quadruplicates were run in the same plate, and the experiments were repeated at least once.

Test in series [2]: as above
In kind it is cell-based, mouse. As to conditions: mouse, uninfected L-929 cells; mammalian L929 cells, 96 h, alamarBlue; ± 2.0; read-out: Cytotoxicity CC50(μM) ± 2.0. How it is done: as §1

Turning to `O=C(c1ccccc1)[C@@H]1C(=O)c2ccccc2O[C@H]1c1ccccc1` (relative stereo) [Compound 2a, trans-3-benzoyl-2-phenylchroman-4-one], in series [1], the IC50 was determined as 8.8 µM. In addition, the “SI (selectivity index calculated from CC50/IC50)” value with L929 cells is on record as 9.1. For the same compound, the CC50 at 96 h in series [2] worked out at 80 µM.
In the same order, the values of `O=C(c1ccccc1)[C@@H]1C(=O)c2ccccc2O[C@H]1c1ccccc1Cl` (relative stereo) [Compound 2b, trans-3-benzoyl-2-(2-chlorophenyl)chroman-4-one] are 10.7 µM, 40.3 and 442 µM.
On the same counts, the results for `O=C(c1ccccc1)[C@@H]1C(=O)c2ccccc2O[C@H]1c1ccc(F)cc1` (relative stereo) [Compound 2c, trans-3-benzoyl-2-(4-fluorophenyl)chroman-4-one] are 21.9 µM, 10.5 and 231 µM.
With `COc1ccc([C@@H]2Oc3ccccc3C(=O)[C@H]2C(=O)c2ccccc2)cc1` (relative stereo) [Compound 2d, trans-3-benzoyl-2-(4-methoxyphenyl)chroman-4-one], the IC50 in series [1] is 5.8 µM. The “SI (selectivity index calculated from CC50/IC50)” value in the series with L929 cells is 38.5. The CC50 at 96 h in series [2] is 223 µM.
For the compound `O=C(c1ccccc1)[C@@H]1C(=O)c2ccccc2O[C@H]1c1ccccn1` (relative stereo) [Compound 2e, trans-3-benzoyl-2-(pyridin-2-yl)chroman-4-one], in series [1], the IC50 turned out to be 184 µM. The “SI (selectivity index calculated from CC50/IC50)” value in the series on L929 cells was 1.3. The CC50 at 96 h in series [2] is 243 µM.
On the same counts, the results for `O=C(c1ccccc1)[C@@H]1C(=O)c2ccccc2O[C@H]1c1ccc(OCc2ccccc2)cc1` (relative stereo) [Compound 2f, trans-3-benzoyl-2-(4-(benzyloxy)phenyl)chroman-4-one] are 7.6 µM, 12.1 and 92.1 µM.
With `Cc1ccc(C(=O)[C@@H]2C(=O)c3ccccc3O[C@H]2c2ccccc2)cc1` (relative stereo) [Compound 2g, trans-3-(4-methylbenzoyl)-2-phenylchroman-4-one], the “Trypanocide IC50(μM) ± 0.2” value in series [1] was “Inactive”.
`Cc1ccc(C(=O)[C@@H]2C(=O)c3ccccc3O[C@H]2c2ccc(F)cc2)cc1` (relative stereo) [Compound 2h, trans-2-(4-fluorophenyl)-3-(4-methylbenzoyl)chroman-4-one]: the IC50 in series [1] amounted to 22.5 µM. For the same compound, in the series on L929 cells, the “SI (selectivity index calculated from CC50/IC50)” value was 4.9. For the same compound, in series [2], the CC50 at 96 h was found to be 111 µM.
Consider `COc1ccc([C@@H]2Oc3ccccc3C(=O)[C@H]2C(=O)c2ccc(C)cc2)cc1` (relative stereo) [Compound 2i, trans-2-(4-methoxyphenyl)-3-(4-methylbenzoyl)chroman-4-one], for which, in series [1], the IC50 amounted to 25 µM. In addition, in the series with L929 cells, the “SI (selectivity index calculated from CC50/IC50)” value is recorded as 4.3. For the same compound, in series [2], the CC50 at 96 h turned out to be 107 µM.
In the same order, the values of `Cc1ccc(C(=O)[C@@H]2C(=O)c3ccccc3O[C@H]2c2ccccc2Cl)cc1` (relative stereo) [Compound 2j, trans-2-(2-chlorophenyl)-3-(4-methylbenzoyl)chroman-4-one] are 63 µM, 1 and 62.5 µM.
Take `O=C(c1ccc(Cl)cc1)[C@@H]1C(=O)c2ccccc2O[C@H]1c1ccccc1` (relative stereo) [Compound 2k, trans-3-(4-chlorobenzoyl)-2-phenylchroman-4-one]: the IC50 in series [1] came out at 29.3 µM. For the same compound, in the series on L929 cells, the “SI (selectivity index calculated from CC50/IC50)” value is on record as 3.8. Also, the CC50 at 96 h in series [2] amounted to 110 µM.
As to `COc1ccc(C(=O)[C@@H]2C(=O)c3ccccc3O[C@H]2c2ccccc2)cc1` (relative stereo) [Compound 2l, trans-3-(4-methoxybenzoyl)-2-phenylchroman-4-one], the IC50 in series [1] is 223 µM. Further, the “SI (selectivity index calculated from CC50/IC50)” value in the series with L929 cells was 1. The CC50 at 96 h in series [2] worked out at 223 µM.
Turning to `COc1ccc(C(=O)[C@@H]2C(=O)c3ccccc3O[C@H]2c2ccc(OC)cc2)cc1` (relative stereo) [Compound 2m, trans-3-(4-methoxybenzoyl)-2-(4-methoxyphenyl)chroman-4-one], in series [1], the IC50 is 37.4 µM. Also, the “SI (selectivity index calculated from CC50/IC50)” value in the series on L929 cells is given as 2.8. The cytotoxic concentration (CC50) at 96 h in series [2] stood at 103 µM.
For `COc1ccc(C(=O)[C@@H]2C(=O)c3ccccc3O[C@H]2c2ccc(F)cc2)cc1` (relative stereo) [Compound 2n, trans-2-(4-fluorophenyl)-3-(4-methoxybenzoyl)chroman-4-one], in series [1], the half-inhibitory concentration (IC50) was found to be 213 µM.
Consider `COc1ccc(C(=O)[C@@H]2C(=O)c3ccccc3O[C@H]2c2ccccc2Cl)cc1` (relative stereo) [Compound 2o, trans-2-(2-chlorophenyl)-3-(4-methoxybenzoyl)chroman-4-one], for which the IC50 in series [1] was determined as 26.5 µM. Besides, the “SI (selectivity index calculated from CC50/IC50)” value in the series on L929 cells is given as 15.4. The 50% cytotoxic concentration (CC50) at 96 h in series [2] was found to be 408 µM.
For `COc1ccc2c(c1)C(=O)[C@@H](C(=O)c1ccccc1)[C@H](c1ccccc1)O2` (relative stereo) [Compound 2p, trans-3-benzoyl-6-methoxy-2-phenylchroman-4-one], the “Trypanocide IC50(μM) ± 0.2” value in series [1] is “Inactive”.
As for `COc1ccc([C@@H]2Oc3ccc(OC)cc3C(=O)[C@H]2C(=O)c2ccccc2)cc1` (relative stereo) [Compound 2q, trans-3-benzoyl-6-methoxy-2-(4-methoxyphenyl)chroman-4-one], in series [1], the IC50 came out at 141 µM. For the same compound, the “SI (selectivity index calculated from CC50/IC50)” value with L929 cells is listed as 1.4. In addition, in series [2], the CC50 at 96 h stood at 206 µM.
In the same order, the values of `COc1ccc2c(c1)C(=O)[C@@H](C(=O)c1ccccc1)[C@H](c1ccc(F)cc1)O2` (relative stereo) [Compound 2r, trans-3-benzoyl-2-(4-fluorophenyl)-6-methoxychroman-4-one] are 17.6 µM, 6.1 and 106 µM.
`O=C(c1ccco1)[C@@H]1C(=O)c2ccccc2O[C@H]1c1ccccc1` (relative stereo) [Compound 2v, trans-3-(furan-2-carbonyl)-2-phenylchroman-4-one]: in series [1], the “Trypanocide IC50(μM) ± 0.2” value was “Inactive”.
Same read-out and setting: as for `COc1ccc([C@@H]2Oc3ccccc3C(=O)[C@H]2C(=O)c2ccco2)cc1` (relative stereo) [Compound 2w, trans-3-(furan-2-carbonyl)-2-(4-methoxyphenyl)chroman-4-one], the entry is “Inactive”; as for `O=C(c1ccco1)[C@@H]1C(=O)c2ccccc2O[C@H]1c1ccc(F)cc1` (relative stereo) [Compound 2x, trans-2-(4-fluorophenyl)-3-(furan-2-carbonyl)chroman-4-one], “Inactive”.
On the same count and under the same terms, as for `C[C@@H]1Oc2ccccc2C(=O)[C@H]1C(=O)c1ccccc1` (relative stereo) [Compound 3, trans-3-benzoyl-2-methylchroman-4-one], the entry is “completely inactive”.
For the compound `O=C(Cn1ccnc1[N+](=O)[O-])NCc1ccccc1` [Bnz, Benznidazole, reference compound], the IC50 in series [1] was found to be 3.8 µM. Moreover, the “SI (selectivity index calculated from CC50/IC50)” value in the series on L929 cells is on record as 625.
